Assay results reported in patent US9028845B2, “Chimeric immunomodulatory compounds and methods of using the same-IV” (Dynavax Technologies Corporation, priority 2001, dated 2015).
Entries after “also recorded” stand apart in the source; their conditions may differ.

Assays:
human PBMCs = experiment: Human PBMC cytokine response assay (IFN-γ and IFN-α in cell-free medium by ELISA), with or without cPLGA;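 for IFN-α (pg/ml) mean: 20 µg/mL compound for 24 hours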;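 for IFN-γ (pg/ml) mean: 20 µg/mL compound for 24 hours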; assay type: cell-based; details: for IFN-α induction (FIG. 10), in words: PBMCs from 8 donors; for IFN-α induction, in words: used alone
CD19+ B cells = experiment: Human B cell proliferation assay (3H-thymidine incorporation); details: for cpm1 / cpm2 / cpm3 / mean cpm / mean of both: B cells, 2 μg/ml, Experiment B; for mean of both: mean of donors 121 and 194; for B cell proliferation (FIG. 11), in words: purified human B cells, 5 μg/ml, 96 h
[1] = donor 28066, 20 ug/ml, 24 h, + PLGA = premixed with 100 μg/ml cPLGA
[2] = donor 28067, 20 ug/ml, 24 h, + PLGA = premixed with 100 μg/ml cPLGA
[3] = donor 28068, 20 ug/ml, 24 h, + PLGA = premixed with 100 μg/ml cPLGA
[4] = mean of donors 28065-28068, 20 ug/ml, 24 h, + PLGA = premixed with 100 μg/ml cPLGA
[5] = Table 24, mean of donors 28234-28237
[6] = Table 25, mean of donors 28250-28253
[7] = mean of donors 110, 112, 119, 120, Table 14
[8] = mean of donors 28185-28188, Table 15
[9] = mean of donors 28218-28221, 20 μg/ml, 24 h

Question: Which results are given for “5′-TCGTCG-3′-HME-5′-ACGTTCG-3′-HME-5′-AGATGAT-3′ [Compound C-25]”?
Answer: IFN-γ (pg/ml) 28065 (human PBMCs; donor 28065 (high background), 20 ug/ml, 24 h, + PLGA = premixed with 100 μg/ml cPLGA, 1000 = outside assay limits): 541 pg/mL; IFN-α (pg/ml) 28065 (human PBMCs; donor 28065, 20 ug/ml, 24 h, + PLGA = premixed with 100 μg/ml cPLGA): 11 pg/mL; IFN-α (pg/ml) 28066 (human PBMCs; [1]): 0 pg/mL; IFN-γ (pg/ml) 28066 (human PBMCs; [1]): 6 pg/mL; IFN-α (pg/ml) 28067 (human PBMCs; [2]): 22 pg/mL; IFN-γ (pg/ml) 28067 (human PBMCs; [2]): 19 pg/mL; IFN-α (pg/ml) 28068 (human PBMCs; [3]): 79 pg/mL; IFN-γ (pg/ml) 28068 (human PBMCs; [3]): 337 pg/mL; IFN-α (pg/ml) mean (human PBMCs; [4]): 28 pg/mL; IFN-γ (pg/ml) mean (human PBMCs; [4]): 226 pg/mL; cpm1 (CD19+ B cells; donor 121): 34360 cpm; cpm2 (CD19+ B cells; donor 121): 35016 cpm; cpm3 (CD19+ B cells; donor 121): 26480 cpm; mean cpm (CD19+ B cells; donor 121 mean): 31952 cpm; cpm1 (CD19+ B cells; donor 194): 16060 cpm; cpm2 (CD19+ B cells; donor 194): 19509 cpm; cpm3 (CD19+ B cells; donor 194): 17384 cpm; mean cpm (CD19+ B cells; donor 194 mean): 17651 cpm; mean of both (CD19+ B cells): 24802 cpm

Question: What does the source list for “(5′-TCGTCGA-3′-HEG)2-glycerol-HEG-5′-TCGTCGA-3′ [Compound C-94]”?
Answer: IFN-α induction (FIG. 10), in words (human PBMCs; 20 μg/ml, 24 h): induce high levels of IFN-α; IFN-α (human PBMCs; Table 11, donor 28042): 302 pg/mL; IFN-γ (human PBMCs; Table 11, donor 28042): 443 pg/mL; IFN-α (human PBMCs; Table 11, donor 28043): 252 pg/mL; IFN-γ (human PBMCs; Table 11, donor 28043): 198 pg/mL; IFN-α (human PBMCs; Table 11, donor 28044): 664 pg/mL; IFN-γ (human PBMCs; Table 11, donor 28044): 1417 pg/mL; IFN-α (human PBMCs; Table 11, donor 28045): 1855 pg/mL; IFN-γ (human PBMCs; Table 11, donor 28045): 888 pg/mL; IFN-α mean (human PBMCs; Table 11, mean of donors): 768 pg/mL; IFN-γ mean (human PBMCs; Table 11, mean of donors): 736 pg/mL; IFN-α (human PBMCs; Table 24, donor 28234): 16 pg/mL; IFN-γ (human PBMCs; Table 24, donor 28234): 7 pg/mL; IFN-α (human PBMCs; Table 24, donor 28235): 118 pg/mL; IFN-γ (human PBMCs; Table 24, donor 28235): 161 pg/mL; IFN-α (human PBMCs; Table 24, donor 28236): 548 pg/mL; IFN-γ (human PBMCs; Table 24, donor 28236): 239 pg/mL; IFN-α (human PBMCs; Table 24, donor 28237): 3631 pg/mL; IFN-γ (human PBMCs; Table 24, donor 28237): 1116 pg/mL; IFN-α mean (human PBMCs; [5]): 1078 pg/mL; IFN-γ mean (human PBMCs; [5]): 381 pg/mL; IFN-a (human PBMCs; Table 25, donor 28250): 245 pg/mL; IFN-g (human PBMCs; Table 25, donor 28250, polynucleotides/spacers at amounts equivalent to the CIC, spacers alone 9 uM): 340 pg/mL; IFN-a (human PBMCs; Table 25, donor 28251): 645 pg/mL; IFN-g (human PBMCs; Table 25, donor 28251): 60 pg/mL; IFN-a (human PBMCs; Table 25, donor 28252): 323 pg/mL; IFN-g (human PBMCs; Table 25, donor 28252): 287 pg/mL; IFN-a (human PBMCs; Table 25, donor 28253): 1198 pg/mL; IFN-g (human PBMCs; Table 25, donor 28253): 128 pg/mL; IFN-a mean (human PBMCs; [6]): 603 pg/mL; IFN-g mean (human PBMCs; [6]): 204 pg/mL; IFN-α induced relative to linear CIC C-21 (human PBMCs; branched vs linear CIC with the same nucleic acid moieties): 4 fold; IFN-α (human PBMCs; donor 110, Table 14): 1608 pg/mL; IFN-γ (human PBMCs; donor 110, Table 14): 5168 pg/mL; IFN-α (human PBMCs; donor 112, Table 14): 144 pg/mL; IFN-γ (human PBMCs; donor 112, Table 14): 284 pg/mL; IFN-α (human PBMCs; donor 119, Table 14): 2610 pg/mL; IFN-γ (human PBMCs; donor 119, Table 14): 104 pg/mL; IFN-α (human PBMCs; donor 120, Table 14): 878 pg/mL; IFN-γ (human PBMCs; donor 120, Table 14): 120 pg/mL; IFN-a (human PBMCs; donor 28185, Table 15): 1895 pg/mL; IFN-g (human PBMCs; donor 28185, Table 15): 181 pg/mL; IFN-a (human PBMCs; donor 28186, Table 15): 239 pg/mL; IFN-g (human PBMCs; donor 28186, Table 15): 61 pg/mL; IFN-a (human PBMCs; donor 28187, Table 15): 136 pg/mL; IFN-g (human PBMCs; donor 28187, Table 15): 384 pg/mL; IFN-a (human PBMCs; donor 28188, Table 15): 13 pg/mL; IFN-g (human PBMCs; donor 28188, Table 15): 17 pg/mL; IFN-a (pg/ml) 28218 (human PBMCs; donor 28218, 20 μg/ml, 24 h): 32 pg/mL; IFN-g (pg/ml) 28218 (human PBMCs; donor 28218, 20 μg/ml, 24 h): 15 pg/mL; IFN-a (pg/ml) 28219 (human PBMCs; donor 28219, 20 μg/ml, 24 h): 167 pg/mL; IFN-g (pg/ml) 28219 (human PBMCs; donor 28219, 20 μg/ml, 24 h): 39 pg/mL; IFN-a (pg/ml) 28220 (human PBMCs; donor 28220, 20 μg/ml, 24 h): 633 pg/mL; IFN-g (pg/ml) 28220 (human PBMCs; donor 28220, 20 μg/ml, 24 h): 44 pg/mL; IFN-a (pg/ml) 28221 (human PBMCs; donor 28221, 20 μg/ml, 24 h): 412 pg/mL; IFN-g (pg/ml) 28221 (human PBMCs; donor 28221, 20 μg/ml, 24 h): 269 pg/mL; IFN-α (pg/ml) mean (human PBMCs; [7]): 1310 pg/mL; IFN-γ (pg/ml) mean (human PBMCs; [7]): 1419 pg/mL; IFN-a (pg/ml) mean (human PBMCs; [8]): 571 pg/mL; IFN-g (pg/ml) mean (human PBMCs; [8]): 161 pg/mL; IFN-a (pg/ml) mean (human PBMCs; [9]): 311 pg/mL; IFN-g (pg/ml) mean (human PBMCs; [9]): 92 pg/mL; IFN-a (pg/ml) ×2 (human PBMCs; mean ×2, Table 15): 1142 pg/mL; IFN-g (pg/ml) ×4 (human PBMCs; mean ×4, Table 15): 644 pg/mL; IFN-α induction, in words (human PBMCs): dramatically higher; also recorded: induced more IFN-α relative to linear CICs with HEG spacers; also recorded: HEG (C-94)>TEG (C-103)>C3 (C-104)=no linker (C-28); cpm1 (CD19+ B cells; donor 121): 11418 cpm; cpm2 (CD19+ B cells; donor 121): 14406 cpm; cpm3 (CD19+ B cells; donor 121): 11110 cpm; mean cpm (CD19+ B cells; donor 121 mean): 12311 cpm; cpm1 (CD19+ B cells; donor 194): 7361 cpm; cpm2 (CD19+ B cells; donor 194): 8505 cpm; cpm3 (CD19+ B cells; donor 194): 5349 cpm; mean cpm (CD19+ B cells; donor 194 mean): 7072 cpm; mean of both (CD19+ B cells): 9692 cpm; B cell proliferation (FIG. 11), in words (CD19+ B cells): induce B cells to proliferate

Question: For “(5′-TCGTCGA-3′-C3)2-glycerol-C3-5′-TCGTCGA-3′ [Compound C-104]”, which “IFN-α induction (FIG. 10), in words” value (human PBMCs; 20 μg/ml, 24 h) is on record?
Answer: induces no measurable IFN-α

Question: And the IFN-α (human PBMCs; Table 24, donor 28234)?
Answer: 16 pg/mL

Question: What about the IFN-γ (human PBMCs; Table 24, donor 28234) of the same substance?
Answer: 14 pg/mL

Question: And the IFN-α (human PBMCs; Table 24, donor 28235)?
Answer: 29 pg/mL

Question: And the IFN-γ (human PBMCs; Table 24, donor 28235)?
Answer: 4 pg/mL

Question: What about the IFN-α (human PBMCs; Table 24, donor 28236) of the same substance?
Answer: 16 pg/mL

Question: And the IFN-γ (human PBMCs; Table 24, donor 28236)?
Answer: 87 pg/mL

Question: What about the IFN-α (human PBMCs; Table 24, donor 28237) of the same substance?
Answer: 16 pg/mL

Question: What about the IFN-γ (human PBMCs; Table 24, donor 28237) of the same substance?
Answer: 125 pg/mL

Question: What about the IFN-α mean (human PBMCs; [5]) of the same substance?
Answer: 19 pg/mL

Question: And the IFN-γ mean (human PBMCs; [5])?
Answer: 58 pg/mL

Question: What about the “IFN-α induction, in words” value (human PBMCs) of the same substance?
Answer: HEG (C-94)>TEG (C-103)>C3 (C-104)=no linker (C-28)

Question: What about the “B cell proliferation (FIG. 11), in words” value (CD19+ B cells) of the same substance?
Answer: stimulates B cells to proliferate
